What follows are molecules tested against T1, human Autotaxin (ATX) (Homo sapiens, UniProt Q13822) (assay: Human ATX enzyme inhibition assay (LPC substrate, choline oxidase/HRP/Amplex Red coupled format)). Conditions: recombinant hATX 1 nM, 18:1 LPC 30 μM, fluorescence at 90 min minus 5 min.
T1 construct: used as template in overlapping PCR to generate a full length human ENPP2 ORF with or without a 3′-6×His tag; 6xHis (C); made in house; host or cells: FreeStyle 293-F cells (transient transfection, protein purified from culture supernatant)
Type: biochemical
Description: Human ATX Enzyme Inhibition Assay
To identify inhibitors of the human Autotaxin (ATX) enzyme an in-vitro biochemical profiling assay has been developed using lysophosphatidylcholine (LPC) as substrate and recombinant enzyme. ATX activity is assayed via a coupled enzyme format where choline produced from LPC hydrolysis is converted to hydrogen peroxide by choline oxidase (CO). Hydrogen peroxide is in turn used as a co-substrate by horseradish peroxidase (HRP) to oxidise Amplex Red® and generate the red-fluorescent product, Resorufin.
50 mM Tris-HCl (pH 8.0); 120 mM NaCl; 20 mM CaCl2); 5 mM KCl; 1 mM MgCl2; 0.01% Triton X-100, sterile-filtered and stored at 4° C.
50 mM Tris-HCl (pH 8.0); 150 mM NaCl human Autotaxin (hATX): 0.97 mg/ml (9.718 μM) Molecular weight 99817. Working solution of 1.5 μM used in this assay.
100 mM 18:1 LPC dissolved in reagent dilution-buffer.
500 U/ml Choline Oxidase in reagent dilution buffer.
2540 U/ml Horseradish Peroxidase, in reagent dilution buffer (10.95 mg/ml).
20 mM Amplex Red (10-Acetyl-3,7-dihydroxy-phenoxazin) in DMSO.
Black, 384-well plate, black with clear bottom, non-treated surface.
Test compounds are received pre-diluted in DMSO as an 11-point concentration-response (0.5 mM highest concentration; 1 in 3.162 dilution). Test compounds are pre-diluted 1:1 (10 μL compound+10 μL assay buffer) in a 96-well conical bottomed plate prior to use.
ATX is diluted to 2.2 nM in assay buffer. Choline oxidase and horseradish peroxidase are diluted to 7.3 U/ml and 14.7 U/ml, respectively. 18:1 LPC and Amplex Red® are diluted to 110 μM and 183.3 μM, respectively (solution protected from light). 2.2 μL of compound pre-dilution or 50% DMSO is added to the reaction plate followed by 25 μL of ATX or assay buffer (negative control). Assay plate is mixed and incubated at room temperature for 10 mins. 15 μL of choline oxidase/horseradish peroxidase is then added. To initiate the reaction 15 μL of LPC 18:1/Amplex Red is added. Assay plate is mixed and incubated at room temperature in the dark. Fluorescence is measured at 5 mins (for background subtraction) and 90 mins.
• hATX: 1 nM • 18:1 LPC: 30 μM • Choline Oxidase: 2 U/ml • Horse Radish Peroxidase: 4 U/ml • Amplex Red®: 50 μM • DMSO: 2%
Fluorescence at 5-minutes is subtracted from the 90-minute end point data and normalized with respect to the positive control. IC50 values are calculated.
Results in the enzymatic ATX inhibition assay are provided for compounds of formula (I).

SMILES	IC50
N#Cc1cc(Cl)cc2c1CC(Nc1ncc(C(=O)N3CCC34COC4)cn1)C2 (stereo not shown) [Example 4, 2-((5-(6-oxa-1-azaspiro[3.3]heptane-1-carbonyl)pyrimidin-2-yl)amino)-6-chloro-2,3-dihydro-1H-indene-4-carbonitrile]	20.8 nM
O=C(c1cnc(NC2Cc3cc(Cl)cc(OC(F)F)c3C2)nc1)N1CCC12COC2 (stereo not shown) [Example 5]	224 nM
CC#Cc1cc(Cl)cc2c1CC(Nc1ncc(C(=O)N3CCC34COC4)cn1)C2 (stereo not drawn) [Example 7, (2-((6-chloro-4-(prop-l-yn-1-yl)-2,3-dihydro-lH-inden-2-yl)amino)pyrimidin-5-yl)(6-oxa-1-azaspiro[3.3]heplan-l-yl)methanone]	23.7 nM
O=C(c1cnc(NC2Cc3cc(Cl)cc(C(F)(F)F)c3C2)nc1)N1CCC12COC2 (stereo not shown) [Example 10, (2-((6-chloro-4-(trifluoromethyl)-2,3-dihydro-1 H-inden-2-yl)amino)pyrimidin-5-yl)(6-oxa-1-azaspiro[3.3]heptan-1-yl)melhanone]	184 nM
CC1(C)CCN1C(=O)c1cnc(N[C@H]2Cc3cc(Cl)cc(C#N)c3C2)nc1 [Example 12, (S)-6-chloro-2-((5-(2,2-dimethylazetidine-1-carbonyl)pyrimidin-2-yl)amino)-2.3-dihydro-1H-indene-4-carbonitrile]	6.5 nM
N#Cc1cc(Cl)cc2c1C[C@@H](Nc1ncc(C(=O)N3CCC34CC(F)(F)C4)cn1)C2 [Example 13, (S)-6-chloro-2-((5-(6,6-difluoro-1-azaspiro[3.3]heptane-1-carbonyl)pyrimidin-2-yl)amino)-2,3-dihydro-1H-indene-4-carbonitrile]	3 nM
C[C@]1(O)C[C@]2(CCN2C(=O)c2cnc(N[C@H]3Cc4cc(Cl)cc(C#N)c4C3)nc2)C1 [Example 14, (cis)-6-chloro-2-(S)-((5-(6-hydroxy-6-methyl-1-azaspiro[3.3]heptane-1-carbonyl)pyrirnidin-2-yl)amino)-2,3-dihydro-1H-indene-4-carbonitrile]	5.5 nM

The remaining lines, values ahead:

IC50	SMILES
111 nM	O=C(c1cnc(NC2Cc3cc(Cl)cc(F)c3C2)nc1)N1CCC12COC2 (racemic) [Example 8, (2-((6-chloro-4-fluoro-2,3-dihydro-1H-inden-2-yl)amino)pyrimidin-5-yl)(6-oxa-1-azaspiro[3.3]heplan-l-yl)melhanone]
45.1 nM	O=C(c1cnc(NC2Cc3cc(Cl)cc(F)c3C2)nc1)N1CCC12COC2 (single isomer, unassigned) [Example 16, (S or R)-(2-((6-chloro-4-fluoro-2,3-dihydro-1H-inden-2-yl)amino)pyrimidin-5-yl)(6-oxa-1-azaspiro[3.3]heptan-1-yl)methanone]
13 nM	O=C(c1cnc(NC2Cc3cc(Cl)cc(Cl)c3C2)nc1)N1CCC12COC2 (stereo not shown) [Example 1]
62 nM	Cc1cc(Cl)cc2c1CC(Nc1ncc(C(=O)N3CCC34COC4)cn1)C2 (stereo not shown) [Example 2, (2-((6-chloro-4-methyl-2,3-dihydro-1H-inden-2-yl)amino)pyrimidin-5-yl)(6-oxa-1-azaspiro[3.3]heptan-1-yl)methanone]
128 nM	O=C(c1cnc(NC2Cc3ccc(Cl)c(Cl)c3C2)nc1)N1CCC12COC2 (stereo not shown) [Example 3, (2-((4,5-dichloro-2,3-dihydro-1H-inden-2-yl)amino)pyrimidin-5-yl)(6-oxa-1-azaspiro[3.3]heptan-1-yl)methanone]
101 nM	Cc1c(Cl)ccc2c1CC(Nc1ncc(C(=O)N3CCC34COC4)cn1)C2 (stereo not shown) [Example 6]
123 nM	O=C(c1cnc(NC2Cc3ccc(Cl)c(F)c3C2)nc1)N1CCC12COC2 (stereo not drawn) [Example 9, (2-((5-chloro-4-fluoro-2,3-dihydro-lH-inden-2-yl)amino)pyrimidin-5-yl)(6-oxa-1-azaspiro[3.3]heplan-l-yl)methanone]
7.4 nM	N#Cc1cc(Cl)cc2c1C[C@@H](Nc1ncc(C(=O)N3CCC34COC4)cn1)C2 [Example 11, (S)-2-((5-(6-oxa-1-azaspiro[3.3]heptane-1-carbonyl)pyrimidin-2-yl)amino)-6-chloro-2,3-dihydro-1H-indene-4-carbonitrile]
282 nM	O=C(c1cnc(NC2Cc3cccc(Cl)c3C2)nc1)N1CCC12COC2 (stereo not shown) [Example 15, (2-((4-chloro-2,3-dihydro-1H-inden-2-yl)amino)pyrimidin-5-yl)(6-oxa-1-azaspiro[3.3]heptan-1-yl)methanone]

Reference: patent US12600712B2 (Hoffmann-La Roche Inc., priority 2020, dated 2026)
